{"source": "patent US20120156242A1", "about": "(priority 2009, published 2012)", "key": {"monoclonal antibody D-1": {"tested_on": "monoclonal antibody D-1", "test": "Inhibition by synthetic peptides of the neutralization activity of D-1", "format": "cell-based, human", "settings": "D-1 and influenza A virus incubated with synthetic peptide"}, "[1]": {"settings": "in vivo; for eliciting of antibody (antibody titer of rabbit immune serum against the peptide): sc"}}, "data": [{"sequence": "NIPSRISIYWTIVKPGD [peptide 2]", "values": [{"measurement": "neutralization inhibition rate", "setting": "monoclonal antibody D-1", "value": "about 20%"}, {"measurement": "eliciting of antibody (antibody titer of rabbit immune serum against the peptide)", "setting": "[1]", "value": "could elicit the antibody in rabbit"}]}, {"sequence": "TMPNNEKFDKLYIWGVHHPGT [peptide 1]", "values": [{"measurement": "neutralization inhibition rate", "setting": "monoclonal antibody D-1", "value": "about 50%"}, {"measurement": "eliciting of antibody (antibody titer of rabbit immune serum against the peptide)", "setting": "[1]", "value": "could elicit the antibody in rabbit"}, {"measurement": "antigenicity", "setting": "[1]; rabbit", "value": "high antigenicity compared with the lower region peptide"}]}]}
